{"source": "patent US11213494B2", "about": "(priority 2016, dated 2022)", "key": {"[1]": {"tested_on": "Fos expression in the forebrain (piriform cortex)", "test": "Fos immunostaining 90 min after ketamine injection, count of Fos-positive cells", "format": "in vivo, mice", "details": "for number of Fos-positive cells in the piriform cortex: 90 min after injection", "experimental": "Three- and 6-week-old male mice, or 11-week-old female mice, were deeply anesthetized by inhalation of isoflurane and perfused transcardially with PBS followed by ice-cold 4% paraformaldehyde in 0.1Mphosphate buffer, pH7.4, within 10 min. […] Brains were postfixed in 4% paraformaldehyde for 2.5 h, cryoprotected in 25% sucrose overnight, then frozen in 2-methylbutane at −45° C. and stored at −80° C. Coronal sections were cut at 40 μm with a cryostat microtome (Jung Frigocut 2800 N) and stored in PBS at 4° C.\nFree-floating 40 μm sections were processed for Fos immunostaining by blocking with 10% goat serum in dilution buffer (PBS, BSA, 0.3% Triton X-100) for 1.5 h and then incubated overnight at room temperature (20±2 h) in rabbit polyclonal anti-c-Fos primary antibody (1:3000, Calbiochem) in dilution buffer plus 10% goat serum. After sequential rinse steps in dilution buffer and PBS, sections were incubated in biotinylated goat anti-rabbit IgG secondary antibody (1:400, Vector Labs) in dilution buffer plus 15% goat serum for 1 h. After rinsing in PBS, sections were incubated in avidin and biotinylated horseradish peroxidase complex (ABC, 1:150, Vector Labs). Finally, sections were developed using the Sigma Fast diaminobenzidine and urea hydrogen peroxide set, mounted on Super Frost Plus slides and coverslipped using VectaShield (Vector Labs).\nAnimals were administered ketamine (8, 20, or 100 mg/kg, i.p.) or an equivalent volume of saline and then returned to their home cage for 90 min. Subsequently, the animals were deeply anesthetized by inhalation of isoflurane, perfused transcardially, and processed for Fos staining as described above.\nSections were visualized and photographed using an AxioSkop2 microscope (Zeiss) equipped with a Quantifire XI microscope camera (Optronics). Fos positive cells were counted using point by-point analysis with Neurolucida software (MBF Bioscience). Before analysis, the photomicrographs were coded so that the observers were blinded to the genotype. Cells were counted in every third section through the nTS, and in a representative subset of sections through the other brain regions analyzed. All sections were analyzed twice by two independent and blinded observers, and respective counts were averaged. The nTS was sampled at 12 levels through the rostro-caudal extent of the nucleus and the average counts at each level were then added together to estimate the total number of labeled cells per animal. To define genotype effects on Fos expression, G*Power 3 power analysis software was used to determine group sizes."}, "[2]": {"details": "in vivo; cited from earlier work"}, "[3]": {"tested_on": "RTT mice (Mecp2Jae females)", "test": "Intermittent very low dose ketamine regimen with plethysmography", "format": "in vivo", "details": "3 mg/kg once every 3 days for two weeks, measured 24 hours after the last injection", "description": "FIG. 14 illustrates a very low dose ketamine (3 mg/kg) dosing regimen for the treatment of RTT in miceMecp2Jae OC females treated once every 72 hours for two weeks (saline or Ketamine 3 mg/kg) with plethysmography measurement 24 hours after the last injection.\nThis Example evaluated a ketamine dosing regimen for the treatment of Rett syndrome. […] These effects are consistent with the ability of ketamine to increase activity in cortical pyramidal cells by selectively inhibiting cortical inhibitory interneurons."}, "Mecp2 Het mice": {"tested_on": "Mecp2 Het mice", "test": "Prepulse inhibition (PPI) of the acoustic startle response", "format": "in vivo", "details": "ketamine 8 mg/kg; for % PPI 73 dB: prepulse 73 dB; for % PPI 76 dB: prepulse 76 dB; for % PPI 82 dB: prepulse 82 dB", "description": "Prepulse inhibition (PPI) of the acoustic startle response (ASR) was measured to assess sensorimotor gating function using Med Associates Startle Response recording system. Mice were divided into four groups (Het ketamine, Het vehicle, Wt ketamine, Wt vehicle), and received injections of either ketamine (8 mg/kg) or an equivalent amount of saline immediately before they were placed individually inside a small-sized, nonrestrictive, cubical Plexiglas recording chamber [2.5 inches (L)×2.5 inches (W)×1.75 inches (H)] fixed on an accelerometer platform and allowed to acclimate for 5 min. Subsequently, the mouse was exposed to 4 testing blocks. In the first testing block, the initial startle response amplitude was determined by delivering a 40 ms pulse of 120 dB broadband white noise and recording the maximum startle amplitude (Vmax). A baseline startle response was determined by repeating this recording paradigm for six consecutive trials (with 8-23 s between each stimulus) and calculating the average Vmax measured in those trials. In the second and third testing blocks, the mice were exposed to a series of “pulse-only” or “prepulse-pulse pair” stimuli to determine the effect that a reduced intensity prepulse had on the acoustic startle response. The pulse-only stimulus consisted of an 80 ms stimulus of 120 dB. The prepulse-pulse pair trials were conducted by delivering a single 20 ms prepulse, with an intensity of 73, 76 or 82 dB before an 80 ms stimulus with an intensity of 120 dB. An average delay of 15 s (8-23 s) occurred between each stimulus. Each prepulse-pulse pair trial was repeated 10 times, pulse only trials were repeated 12 times. The Vmax measured from each prepulse-pulse trial was compared with the Vmax measured from the 120 dB pulse-only trials, and a percentage prepulse inhibition (% PPI) was calculated for each prepulse intensity. In the fourth testing block, startle response Vmax was recorded from 6 additional 40 ms pulses of 120 dB broadband white noise (with 8-23 s between each stimulus) and compared with the baseline startle response from the first testing block to eliminate the possibility of habituation to the acoustic stimulus throughout the test."}}}
{"smiles": "CNC1(c2ccccc2Cl)CCCCC1=O", "note": "(stereo not drawn) [ketamine]", "values": [{"measurement": "number of Fos-positive cells in the piriform cortex", "setting": "[1]; Null mice, ketamine 20 mg/kg i.p.", "result": "83.2±18.2", "unit": "cells"}, {"measurement": "number of Fos-positive cells in the piriform cortex", "setting": "[1]; Null mice, ketamine 100 mg/kg i.p.", "result": "116.3±26.4", "unit": "cells"}, {"measurement": "number of Fos-positive cells in the piriform cortex", "setting": "[1]; Wt mice, ketamine 100 mg/kg i.p.", "result": "119.3±17.2", "unit": "cells"}, {"measurement": "increase in the number of Fos-positive cells", "setting": "[1]; Wt mice, ketamine 100 mg/kg, piriform cortex", "result": 20, "unit": "%"}, {"measurement": "half-life", "setting": "[2]", "result": "less than 1 hour"}, {"measurement": "apneic breathing", "setting": "[3]", "result": "complete elimination"}, {"measurement": "% PPI 73 dB", "setting": "Mecp2 Het mice; Het mice", "result": "5.3±5.8", "unit": "%"}, {"measurement": "% PPI 76 dB", "setting": "Mecp2 Het mice; Het mice", "result": "17.8±2.9", "unit": "%"}, {"measurement": "% PPI 82 dB", "setting": "Mecp2 Het mice; Het mice", "result": "21.4±6.4", "unit": "%"}, {"measurement": "% PPI 73 dB", "setting": "Mecp2 Het mice; Wt mice", "result": "7.8±4.1", "unit": "%"}, {"measurement": "% PPI 76 dB", "setting": "Mecp2 Het mice; Wt mice", "result": "12.8±4.8", "unit": "%"}, {"measurement": "% PPI 82 dB", "setting": "Mecp2 Het mice; Wt mice", "result": "24.1±5.8", "unit": "%"}]}
